Test results from patent US5521159A, “Partially modified and retro-inverted tetrapeptides analogues of C-reactive protein fragments” (Italfarmaco S.p.A., priority 1992, dated 1996).

Key:
[1] = test system: murine splenocytes; assay: Stimulation of in vitro IFN-.tau. production by murine splenocytes (ELISA); type: cell-based, BALB/C mice; conditions: for IFN-.tau. production, Stimulation index / IFN-.tau. production, U/ml: 24 hours; for IFN-.tau. production, Stimulation index: with respect to untreated cells; for IFN-.tau. production, U/ml: control 31 (Ex.1, Ex.2), 41 (Ex.3)
Experimental: Stimulation of in vitro IFN-.tau. production by murine splenocytes
The splenic cells were obtained from spleen of BALB/C mice as single cells suspension. The splenocytes thus obtained were resuspended in RPMI 1640 culture medium (Flow Lab., Hertz, UK) containing 5% of fetal calf serum (FCS) (HyClone, ST, Utah, USA) at a final concentrazione of 10^7 cells/ml, and incubated in 96-well plates for 24 hours at 37° C. in the presence of the tested compounds at the indicated concentration. At the end of the incubation the supernatant was collected, filtered by […] filter and freezed to -80° C. until the time of the test carried out by ELISA commercial kit (Genzyme, Boston, Mass., USA).

[2] = test system: murine peritoneal macrophages; assay: Stimulation of IL-1 production by murine peritoneal macrophages (ELISA); type: cell-based, BALB/C mice; conditions: 96 hours; for IL-1 production, Stimulation index: with respect to control; for IL-1 production, U/ml: control 15
Text: Stimulation of IL-1 production by murine peritoneal macrophages
Murine peritoneal macrophages were obtained by inoculation of a solution of hydrolized starch (BDH Chemicals, Poole, Dorset, UK) into the peritoneal cavity of BALB/C. mice, three days before sacrificing the animals. The peritoneal cells were then collected by washing the peritoneal cavity with a solution of RPMI 1640 containing 10% of FCS, and resuspended in the same solution at a concetration of 10^6 cells/ml in 96-well plates. The incubation was performed for 96 hours at 37° C. in the presence of the compounds in question. At the end of the treatment the supernatants were collected and used for dosing cytokine by means of a suitable ELISA commerical kit (Genzyme, Boston, Mass., USA).

[3] = test system: murine peritoneal cells; assay: Stimulation of the nitric oxide by murine peritoneal cells (chemiluminescence); type: cell-based, BALB/C mice; conditions: with lipopolysaccharide 30 μg/ml, 96 hours; for nitric oxide, Stimulation index: with respect to control; for nitric oxide content: control 20
Experimental: Stimulation of the nitric oxide by murine peritoneal cells
The peritoneal cells were obtained as described in the previous test, and incubated for 96 hours at 37° C. in the presence of the compounds in question and of lipopolysaccharide at a concentration of 30 μg/ml. At the end of the treatment the supernatants were collected and the nitric oxide content was determined by the chemiluminescence test described by Palmer R. M. J. et al, Nature, 327, 524, 1987.

[4] = test system: Leishmania major; assay: Effect on the leishmanicidal activity of murine peritoneal macrophage (3H-thymidine incorporation); type: cell-based; conditions: for 3H-thymidine incorporation by living parasites, cpm (counts per minute): 24 hours pre-incubation of macrophages, control 18,273; for % reduciton of infection: versus control
Experimental: Effect on the leishmanicidal activity of murine peritoneal macrophage
The peritoneal cells collected as described above were seeded in 96-well flat bottom plates (Nunc, Roskiled, DK) at a concentration of 10^5 /100 μl; and incubated per 24 hours at 37° C. At the end of the treatment, the cells not adherent to the well were separated and discharged, whereas the adherent cells were washed three time with culture medium and incubated for 24 hours with the compounds in question, then the cells were infected through a 24 hours incubation with promastigotes of Leishmania major (L. major, PVL49 strain supplied by Dr. Neal R. A., London School of Hygiene and Tropical Medicine, London, UK). At the end of the infection treatment each well was added with 100 μl of a 0.01% solution od sodium dodecylsulphate in RPMI 1640, and the plates were incubated for 30 minutes at 37° C. The Schneider's culture medium (Schneider Drosophila medium, Gibco Lab., Grand island, N.Y., USA) with 30% of FCS was added. Each well was added with 1 μCi of ^3 H-thymidine, and a 72 hours incubation was carried out at 37° C. The incorporation of radioactivity by the living parasites inside the peritoneal cells, which is correlated to the infection degree and consequently to the leishmanicidal activity of the cells, was measured by collecting the cells by means of a cell-harvester and measuring the radioactivity with liquid scintillation β-counter.

[5] = test system: BALB/C mice inoculated with LPS; assay: In vivo protection against septic shock (LPS-inoculated mice); conditions: LPS 50 mg/kg intraperitoneally, checked for 8 days
Experimental: Evaluation of the in vivo protection against septic shock
BALB/C mice (6 mice/group) weighting between 20 and 25 g, were intraperitoneally inoculated with 50 mg/kg of LPS (lipopolysaccharide-Sigma). The groups, except for the control, were inoculated with increasing doses of one of the compounds of the invention dissolved in physiologic solution having a final volume of 0.5 ml, at time 0 (i.e. together with LPS) or 30 minutes after the LPS inoculation. The mice were checked for 8 days to determined the survival percentage. Compound of Example 1 yields a survival percentage of about 65% at doses of 6.2 ug/mouse and 0.62 ug/mouse, and its isomer B yields a survival percentage of about 80% at a dose of 6.25 ug/mouse and of 75% at a dose of 62.5 ug/mouse.

Molecule: H-gThr-(R,S)mLys-Pro-Gln-OH.AcOH [Ex.3]
- IFN-.tau. production, Stimulation index ([1]; 0.1 μg/ml): 1.5
- IFN-.tau. production, U/ml ([1]; 0.1 μg/ml): 60 U/ml
- IFN-.tau. production, Stimulation index ([1]; 1.0 μg/ml): 1.5
- IFN-.tau. production, U/ml ([1]; 1.0 μg/ml): 60 U/ml
- IFN-.tau. production, Stimulation index ([1]; 10.0 μg/ml): 1.7
- IFN-.tau. production, U/ml ([1]; 10.0 μg/ml): 68 U/ml
- IL-1 production, Stimulation index ([2]; 0.01 μg/ml): 10.0
- IL-1 production, U/ml ([2]; 0.01 μg/ml): 150 U/ml
- IL-1 production, Stimulation index ([2]; 0.1 μg/ml): 10.7
- IL-1 production, U/ml ([2]; 0.1 μg/ml): 160 U/ml
- IL-1 production, Stimulation index ([2]; 1.0 μg/ml): 10.3
- IL-1 production, U/ml ([2]; 1.0 μg/ml): 155 U/ml
- IL-1 production, Stimulation index ([2]; 10.0 μg/ml): 9.3
- IL-1 production, U/ml ([2]; 10.0 μg/ml): 140 U/ml
- nitric oxide, Stimulation index ([3]; 0.01 μg/ml): 2.5
- nitric oxide content ([3]; 0.01 μg/ml): 50 nmol/mL
- nitric oxide, Stimulation index ([3]; 0.1 μg/ml): 3.0
- nitric oxide content ([3]; 0.1 μg/ml): 60 nmol/mL
- nitric oxide, Stimulation index ([3]; 1.0 μg/ml): 3.3
- nitric oxide content ([3]; 1.0 μg/ml): 66 nmol/mL
- nitric oxide, Stimulation index ([3]; 10.0 μg/ml): 4.4
- nitric oxide content ([3]; 10.0 μg/ml): 88 nmol/mL
- 3H-thymidine incorporation by living parasites, cpm (counts per minute) ([4]; 0.1 μg/ml): 18,826 cpm
- % reduciton of infection ([4]; 0.1 μg/ml): -3%
- 3H-thymidine incorporation by living parasites, cpm (counts per minute) ([4]; 1.0 μg/ml): 8,377 cpm
- % reduciton of infection ([4]; 1.0 μg/ml): 54%
- 3H-thymidine incorporation by living parasites, cpm (counts per minute) ([4]; 10.0 μg/ml): 7,842 cpm
- % reduciton of infection ([4]; 10.0 μg/ml): 57%

Molecule: H-gThr-R,S)mLys-Pro-LeU-OH.AcOH [Ex.2]
- IFN-.tau. production, Stimulation index ([1]; 0.1 μg/ml): 1.8
- IFN-.tau. production, U/ml ([1]; 0.1 μg/ml): 57 U/ml
- IFN-.tau. production, Stimulation index ([1]; 1.0 μg/ml): 1.7
- IFN-.tau. production, U/ml ([1]; 1.0 μg/ml): 52 U/ml
- IFN-.tau. production, Stimulation index ([1]; 10.0 μg/ml): 1.9
- IFN-.tau. production, U/ml ([1]; 10.0 μg/ml): 60 U/ml
- IL-1 production, Stimulation index ([2]; 0.01 μg/ml): 6.0
- IL-1 production, U/ml ([2]; 0.01 μg/ml): 90 U/ml
- IL-1 production, Stimulation index ([2]; 0.1 μg/ml): 4.0
- IL-1 production, U/ml ([2]; 0.1 μg/ml): 60 U/ml
- IL-1 production, Stimulation index ([2]; 1.0 μg/ml): 3.1
- IL-1 production, U/ml ([2]; 1.0 μg/ml): 47 U/ml
- IL-1 production, Stimulation index ([2]; 10.0 μg/ml): 3.3
- IL-1 production, U/ml ([2]; 10.0 μg/ml): 50 U/ml
- nitric oxide, Stimulation index ([3]; 0.01 μg/ml): 4.3
- nitric oxide content ([3]; 0.01 μg/ml): 85 nmol/mL
- nitric oxide, Stimulation index ([3]; 0.1 μg/ml): 3.1
- nitric oxide content ([3]; 0.1 μg/ml): 61 nmol/mL
- nitric oxide, Stimulation index ([3]; 1.0 μg/ml): 3.3
- nitric oxide content ([3]; 1.0 μg/ml): 66 nmol/mL
- nitric oxide, Stimulation index ([3]; 10.0 μg/ml): 4.0
- nitric oxide content ([3]; 10.0 μg/ml): 79 nmol/mL
- 3H-thymidine incorporation by living parasites, cpm (counts per minute) ([4]; 0.1 μg/ml): 17,568 cpm
- % reduciton of infection ([4]; 0.1 μg/ml): 4%
- 3H-thymidine incorporation by living parasites, cpm (counts per minute) ([4]; 1.0 μg/ml): 11,991 cpm
- % reduciton of infection ([4]; 1.0 μg/ml): 34%
- 3H-thymidine incorporation by living parasites, cpm (counts per minute) ([4]; 10.0 μg/ml): 10,582 cpm
- % reduciton of infection ([4]; 10.0 μg/ml): 42%

Molecule: N=C(N)NCCC[C@H](NC(=O)[C@@H]1CCCN1C(=O)C(CCCCN)C(=O)NCN)C(=O)O (single isomer, unassigned) [Ex.1]
- IFN-.tau. production, Stimulation index ([1]; 0.1 μg/ml): 1.1
- IFN-.tau. production, U/ml ([1]; 0.1 μg/ml): 33 U/ml
- IFN-.tau. production, Stimulation index ([1]; 1.0 μg/ml): 1.9
- IFN-.tau. production, Stimulation index ([1]; 1.0 μg/ml, listed as example 1): doubled
- IFN-.tau. production, U/ml ([1]; 1.0 μg/ml): 60 U/ml
- IFN-.tau. production, Stimulation index ([1]; 10.0 μg/ml): 1.6
- IFN-.tau. production, U/ml ([1]; 10.0 μg/ml): 49 U/ml
- stimulation of IFN-.tau. production, result in words ([1]; 0.1 to 10.0 μg/ml): the most powerful one of the present class
- IL-1 production, Stimulation index ([2]; 0.01 μg/ml): 0.4
- IL-1 production, U/ml ([2]; 0.01 μg/ml): 6 U/ml
- IL-1 production, Stimulation index ([2]; 0.1 μg/ml): 0.1
- IL-1 production, U/ml ([2]; 0.1 μg/ml): 2 U/ml
- IL-1 production, Stimulation index ([2]; 1.0 μg/ml): 0.1
- IL-1 production, U/ml ([2]; 1.0 μg/ml): 2 U/ml
- IL-1 production, Stimulation index ([2]; 10.0 μg/ml): 0.1
- IL-1 production, U/ml ([2]; 10.0 μg/ml): 2 U/ml
- survival percentage ([5]; 0.62 ug/mouse): about 65%
- survival percentage ([5]; 6.2 ug/mouse): about 65%
- nitric oxide, Stimulation index ([3]; 0.01 μg/ml): 2.2
- nitric oxide content ([3]; 0.01 μg/ml): 43 nmol/mL
- nitric oxide, Stimulation index ([3]; 0.1 μg/ml): 3.0
- nitric oxide content ([3]; 0.1 μg/ml): 59 nmol/mL
- nitric oxide, Stimulation index ([3]; 1.0 μg/ml): 3.9
- nitric oxide content ([3]; 1.0 μg/ml): 77 nmol/mL
- nitric oxide, Stimulation index ([3]; 10.0 μg/ml): 2.9
- nitric oxide content ([3]; 10.0 μg/ml): 57 nmol/mL
- 3H-thymidine incorporation by living parasites, cpm (counts per minute) ([4]; 0.1 μg/ml): 5,096 cpm
- % reduciton of infection ([4]; 0.1 μg/ml): over 70%
- % reduciton of infection ([4]; 0.1 μg/ml, listed as Es. 1): 72%
- 3H-thymidine incorporation by living parasites, cpm (counts per minute) ([4]; 1.0 μg/ml): 3,783 cpm
- % reduciton of infection ([4]; 1.0 μg/ml): 79%
- 3H-thymidine incorporation by living parasites, cpm (counts per minute) ([4]; 10.0 μg/ml): 4,292 cpm
- % reduciton of infection ([4]; 10.0 μg/ml): 77%
- reduction of the infection degree, result in words ([4]; 0.1 to 10.0 μg/ml): the utmost effective

Molecule: N=C(N)NCCC[C@H](NC(=O)[C@@H]1CCCN1C(=O)C(CCCCN)C(=O)NCN)C(=O)O (single isomer, unassigned) [isomer B]
- survival percentage ([5]; 6.25 ug/mouse): about 80%
- survival percentage ([5]; 62.5 ug/mouse): 75%
